Data on one compound can be found in patent US5419898A, “Antiallergic composition for ophthalmic or nasal use” (priority 1992, dated 1995).

The experiment relates to histamine-induced conjunctivitis. Put plainly: Effect on rat histamine-induced conjunctivitis. The format is in vivo, Male Wistar rats. The settings on record: 0.5 w/v % cetirizine hydrochloride; 3 μl per eye 40 and 20 minutes before histamine. On the procedure: Male Wistar rats of about 100 g in weight were injected subconjunctivally each with 50 μl of 0.1 w/v % histamine at the upper eyelid. Each of the following test ophthalmic compositions in solution form was instilled into both eyes of the rats in the corresponding group at a dose of 3 μl for each eye 40 and 20 minutes before the histamine injection. The rats were sacrificed one hour after the histamine injection. The palpebral conjunctival edema weight was measured, and the edema inhibition rate was calculated using the edema weight of the physiological saline group as the maximal response.

The structures appear in SMILES notation. Where a name gives a salt, the structure may show the parent alone.

For the compound `O=C(O)COCCN1CCN(C(c2ccccc2)c2ccc(Cl)cc2)CC1` (stereo not shown) [cetirizine hydrochloride], the edema inhibition rate result is recorded as “about 88.8%”.
